Results taken from the supplement of paper PMC10307832.

Legend:
Test in all cases: relative viability (nuclei count vs DMSO), 5 days (fraction); higher = more cells survive
[1] = compound: C=CCNC1=C2C[C@@H](C)C[C@H](OC)[C@H](O)[C@@H](C)/C=C(\C)[C@H](OC(N)=O)[C@@H](OC)/C=C\C=C(/C)C(=O)NC(=CC1=O)C2=O [17-AAG] + COc1cc2c(Oc3ccc(NC(=O)C4(C(=O)Nc5ccc(F)cc5)CC4)cc3F)ccnc2cc1OCCCN1CCOCC1 [Foretinib] (partner 0.25 µM)
Summary of the method: (§1)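 Lung cancer cell lines, seeded in 1536-well plates, were treated the following day by pin tool with a single drug or with five library-drug doses (not always all listed) in √10 steps on top of a fixed anchor-drug dose. Cells were fixed and nuclei stained in one step after 5 days, and nuclei were counted. Relative viability is the nuclei count for treated wells divided by that for vehicle wells, reported as medians of duplicate plates.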

[2] = compound: C=CCNC1=C2C[C@@H](C)C[C@H](OC)[C@H](O)[C@@H](C)/C=C(\C)[C@H](OC(N)=O)[C@@H](OC)/C=C\C=C(/C)C(=O)NC(=CC1=O)C2=O [17-AAG] + CCNC(=O)c1noc(-c2cc(C(C)C)c(O)cc2O)c1-c1ccc(CN2CCOCC2)cc1 [Luminespib] (partner 0.01 µM)
Summary of the method: as §1

[3] = compound: C=CCNC1=C2C[C@@H](C)C[C@H](OC)[C@H](O)[C@@H](C)/C=C(\C)[C@H](OC(N)=O)[C@@H](OC)/C=C\C=C(/C)C(=O)NC(=CC1=O)C2=O [17-AAG] + Cc1nc(Nc2ncc(C(=O)Nc3c(C)cccc3Cl)s2)cc(N2CCN(CCO)CC2)n1 [Dasatinib] (partner 0.075 µM)
Summary of the method: as §1

[4] = compound: C=CCNC1=C2C[C@@H](C)C[C@H](OC)[C@H](O)[C@@H](C)/C=C(\C)[C@H](OC(N)=O)[C@@H](OC)/C=C\C=C(/C)C(=O)NC(=CC1=O)C2=O [17-AAG] + Nc1ncn([C@H]2C[C@H](O)[C@@H](CO)O2)c(=O)n1 [Decitabine] (partner 2 µM)
Summary of the method: as §1

Cell Line | relative viability ([1]; first compound 0.00128 µM) | relative viability ([1]; first compound 0.004048 µM) | relative viability ([1]; first compound 0.0128 µM) | relative viability ([1]; first compound 0.04048 µM) | relative viability ([1]; first compound 0.128 µM) | relative viability ([2]; first compound 0.00128 µM) | relative viability ([2]; first compound 0.004048 µM) | relative viability ([2]; first compound 0.0128 µM) | relative viability ([2]; first compound 0.04048 µM) | relative viability ([2]; first compound 0.128 µM) | relative viability ([3]; first compound 0.00128 µM) | relative viability ([3]; first compound 0.004048 µM) | relative viability ([3]; first compound 0.0128 µM) | relative viability ([3]; first compound 0.04048 µM) | relative viability ([3]; first compound 0.128 µM) | relative viability ([4]; first compound 0.00128 µM) | relative viability ([4]; first compound 0.004048 µM) | relative viability ([4]; first compound 0.0128 µM) | relative viability ([4]; first compound 0.04048 µM) | relative viability ([4]; first compound 0.128 µM)
NCI-H1651 | 0.788 | 0.664 | 0.423 | 0.15 | 0.161 | 0.884 | 0.774 | 0.394 | 0.213 | 0.186 | 0.486 | 0.415 | 0.206 | 0.186 | 0.111 | 0.389 | 0.68 | 0.481 | 0.362 | 0.179
NCI-H1666 | 1.04 | 0.963 | 0.587 | 0.383 | 0.341 | 1 | 0.86 | 0.474 | 0.296 | 0.342 | 0.783 | 0.718 | 0.309 | 0.35 | 0.295 | 0.74 | 0.804 | 0.641 | 0.364 | 0.363
NCI-H1734 | 0.895 | 0.951 | 0.856 | 0.282 | 0.18 | 0.197 | 0.18 | 0.167 | 0.143 | 0.16 | 0.482 | 0.445 | 0.356 | 0.176 | 0.105 | 0.502 | 0.536 | 0.46 | 0.242 | 0.142
NCI-H1755 | 0.92 | 0.898 | 0.888 | 0.302 | 0.309 | 0.479 | 0.444 | 0.364 | 0.273 | 0.223 | 0.478 | 0.401 | 0.324 | 0.213 | 0.118 | 0.695 | 0.772 | 0.671 | 0.643 | 0.391
NCI-H1793 | 0.63 | 0.622 | 0.442 | 0.165 | 0.161 | 0.191 | 0.149 | 0.136 | 0.16 | 0.169 | 0.437 | 0.243 | 0.14 | 0.122 | 0.129 | 0.429 | 0.382 | 0.225 | 0.21 | 0.159
NCI-H1915 | 1.09 | 1.06 | 1.12 | 1.06 | 0.271 | 0.682 | 0.659 | 0.548 | 0.418 | 0.0942 | 0.29 | 0.322 | 0.218 | 0.115 | 0.0794 | 0.259 | 0.271 | 0.263 | 0.25 | 0.0807
NCI-H1944 | 0.974 | 0.896 | 0.735 | 0.216 | 0.175 | 0.595 | 0.603 | 0.565 | 0.219 | 0.151 | 0.198 | 0.199 | 0.175 | 0.158 | 0.15 | 0.418 | 0.445 | 0.441 | 0.357 | 0.163
NCI-H1975 | 1.02 | 0.904 | 0.288 | 0.136 | 0.118 | 0.198 | 0.175 | 0.14 | 0.176 | 0.139 | 0.315 | 0.247 | 0.121 | 0.104 | 0.0938 | 0.378 | 0.396 | 0.266 | 0.175 | 0.14
NCI-H1993 | 0.83 | 0.846 | 0.826 | 0.516 | 0.466 | 0.919 | 0.625 | 0.516 | 0.273 | 0.423 | 0.548 | 0.607 | 0.344 | 0.387 | 0.344 | 0.609 | 0.606 | 0.544 | 0.408 | 0.348
NCI-H2009 | 1.23 | 1.14 | 1.17 | 0.85 | 0.138 | 0.983 | 0.983 | 0.871 | 0.354 | 0.0842 | 0.313 | 0.298 | 0.304 | 0.229 | 0.0827 | 0.421 | 0.398 | 0.342 | 0.265 | 0.134
NCI-H2023 | 0.93 | 0.672 | 0.297 | 0.0761 | 0.0537 | 0.52 | 0.25 | 0.228 | 0.0785 | 0.0689 | 0.572 | 0.281 | 0.0632 | 0.0704 | 0.059 | 0.178 | 0.168 | 0.0829 | 0.0643 | 0.0587
NCI-H2085 | 0.92 | 0.834 | 1.06 | 0.844 | 0.563 | 0.521 | 0.447 | 0.462 | 0.345 | 0.314 | 0.184 | 0.271 | 0.243 | 0.292 | 0.298 | 0.498 | 0.512 | 0.588 | 0.57 | 0.495
NCI-H2087 | 1.08 | 0.855 | 0.183 | 0.137 | 0.113 | 0.17 | 0.158 | 0.159 | 0.131 | 0.0988 | 0.872 | 0.49 | 0.0992 | 0.13 | 0.0882 | 0.248 | 0.193 | 0.104 | 0.113 | 0.114
NCI-H2126 | 1.29 | 1.19 | 1.05 | 0.908 | 0.236 | 0.681 | 0.499 | 0.261 | 0.243 | 0.292 | 0.596 | 0.515 | 0.202 | 0.22 | 0.243 | 0.556 | 0.631 | 0.616 | 0.622 | 0.456
NCI-H2170 | 0.961 | 1.01 | 0.955 | 0.607 | 0.328 | 0.696 | 0.502 | 0.374 | 0.137 | 0.151 | 0.623 | 0.663 | 0.275 | 0.123 | 0.111 | 0.375 | 0.47 | 0.291 | 0.336 | 0.152
